Measurements: patent publication US8835644B2, “Broad spectrum benzothiophene-nitrothiazolide and other antimicrobials” (University of Virginia Patent Foundation, priority 2009, dated 2014)
Converted amounts (≈) assume the structure as drawn. Where two headings read alike, the source gives them in different places.

Experiments:
[1] = test system: S. epidermidis; assay: MIC testing by broth dilution, S. epidermidis plank; assay type: cell-based, Staphylococcus epidermidis
In short: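 Values are broth-dilution MICs, defined as the well showing no growth on visual reading after 24 h; the tested range was 32 to 0.06 μg/ml, in organism-specific media (LB, Trypticase Soy, Brain Heart Infusion). The C. difficile entries come instead from anaerobic Kirby-Bauer disk zones, normalised to NTZ.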

[2] = test system: S. aureus and S. epidermidis strains; assay: MIC by microdilution in TSB, staphylococcal strains; assay type: cell-based, Staphylococcus epidermidis; conditions: Staphylococcus aureus; staphylococcal strains incl. MRSA S. aureus, microdilution in TSB; read-out: MIC
Experimental: (§1) Minimal inhibitory concentration testing of NTZ was done in sterile round bottom 96 well microtiter polystyrene plates (Corning Inc., Corning, N.Y.) by microdilution. Tizoxanide TIZ (deacetylated form of NTZ), denitro-NTZ (TIZ without 5-nitro group) and amoxanide AMIX (TIZ-ethylamine) were also tested. Bacteria were grown overnight and suspended in fresh TSB to an OD600 of 0.01 and 100 μl were dispensed into wells with the first well containing 200 μA NTZ and other antibiotics (DMSO control) were added to well one and serially diluted from 32 μg/ml. All compounds were tested in triplicate and plates were read visually or with a plate reader (Molecular Devices) at 8, 12 and at 24 h. MIC was determined as the first well in which no visible bacterial growth was noted relative to controls. Drug effects on aerobic growth were determined in 125 ml flasks containing 25 ml of TSB medium and following inoculation (detailed above), flasks were on a gyrorotary shaker (200 rpm) at 37° C. Final concentrations of NTZ were 0, 10 and 25 μg/ml and samples were removed at hourly intervals and absorbance determined at 600 nm.

[3] = test system: S. epidermidis; assay: Aerobic growth of S. epidermidis in shaken TSB flasks; assay type: cell-based, Staphylococcus epidermidis
Experimental: as §1

[4] = test system: S. epidermidis 9142; assay: Catheter adherence model; assay type: cell-based, Staphylococcus epidermidis; conditions: 24 h, dose dependent, within the IC50 range
Experimental: An overnight culture of S. epidermidis 9142 was used to inoculate fresh TSB medium to a final OD600 of 0.01 in a volume of 3 ml in 15 ml screw capped tubes. Sterile sheets of polyurethane were divided into 1 cm square pieces and placed into tubes containing different concentrations of NTZ or controls containing DMSO. The tubes were incubated for 24 h with shaking. Each catheter portion was washed 3 times with sterile PBS, suspended in 4 ml sterile PBS and sonicated for 10 min in a sonic water bath. 10 μl of the sonicated fluid was diluted in fresh PBS and plated onto TSA plates and incubated at 37° C. overnight. Bacteria were enumerated (triplicate plates) and the mean and standard deviation were determined and reported as CFU/ml. Viability effects were corrected for by plating the supernatants from the 3 ml experiment for total bacterial counts.

[5] = test system: aggR and aafA transcripts of EAEC 042; assay: qRT-PCR of aggR, aafA and rpoS; assay type: cell-based, Escherichia coli; conditions: EAEC 042, MinA-G
Experimental: EAEC 042 was grown overnight in MinA-G medium and then diluted to a starting OD600 of 0.05 in three 50 ml MinA-G cultures with 0, 10, and 25 μg/ml NTZ. Bacterial cells were grown with shaking until the cultures reached an OD600 of ˜0.4 and were harvested by centrifugation at 4° C. The pellets were resuspended in 200 μl TE buffer, transferred to polystyrene round bottom 14 ml tubes, and total RNA was extracted by the TES-hot phenol method as previously described (15). The RNA was re-precipitated and washed two times with 500 μl 70% DEPC ethanol to remove any remaining salts. The pellets were dried at 37° C. and suspended in 100 μl DEPC water. RNA concentration was determined with a Nanoprop ND-1000 UV-Vis Spectrophotometer. RNA yields were typically in the 1.6-3.2 μg/μl range. Residual DNA was removed by treatment with TURBO DNase and stored at −80° C. (15).
Primers for real-time qRT-PCR were designed to yield approximately 150 base pair amplicons for the virulence genes aggR and aafA and for the stringent response gene rpoS, which served as an internal control. SuperScript™ II Reverse Transcriptase (Invitrogen) was used to synthesize first-strand cDNA from 1 μg purified RNA with 100 ng random primers (Invitrogen). RNA, random primers, and dNTPs (0.5 mM final concentration) were mixed, heated for 65° C. for 5 min, centrifuged briefly, and quick chilled on ice. […]

[6] = reference (9); cited from earlier work

## CC(=O)Oc1ccccc1C(=O)Nc1ncc([N+](=O)[O-])s1 [Nitazoxanide, 2-(acetyloxy)-N-(5-nitro-2-thiazolyl)benzamide, reference compound]
[1]; Staphylococcus epidermidis, broth dilution, Trypticase Soy, 24 h, read-out: MIC (μM) S. epidermidis Plank
  MIC: 52.1 µM (≈ 16 µg/mL)
[1]; planktonic, 2-amino-3,5-dinitrothiophene analogues table, read-out: MIC S. epidermidis Plank
  MIC: 52.1 µM (≈ 16 µg/mL)
[1]; planktonic, Thiophene analogues table, read-out: MIC S. epidermidis Plank
  MIC: 52.1 µM (≈ 16 µg/mL)
[2]
  MIC: 8 to 16 µg/mL (≈ 26 to 52.1 µM)
[3]; 10 μg/ml
  Effect on exponential growth rates: little effect on exponential growth rates
[3]; 25 μg/ml
  Inhibition of growth in liquid culture under vigorous aeration: significant inhibition
[4]
  Attachment to catheter material: inhibited attachment
[5]
  Increase in aggR transcript levels over untreated controls: ~10 fold
  aafA expression: unaffected
[6]
  pKa: 6.2
